PubChem BioAssay (NCI)
Where “and” joins values, the source holds several entries; their conditions need not be identical. Equal entries are not always repeated.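 Cultured in 96-well plates, cells were exposed to test compound for 48 hours across five concentrations. The concentration for 50% growth inhibition is given as GI50. TGI is the concentration that stops growth completely.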

Assays:
Test in all cases: NCI anticancer screen, dose series, 48 h
HOP-92 NSCLC = test system: HOP-92 NSCLC
OVCAR-5 ovarian = test system: OVCAR-5 ovarian
CCRF-CEM leukemia = test system: CCRF-CEM leukemia
SF-268 CNS = test system: SF-268 CNS
HS 578T breast = test system: HS 578T breast
HT29 colon = test system: HT29 colon
HOP-62 NSCLC = test system: HOP-62 NSCLC
UACC-257 melanoma = test system: UACC-257 melanoma
SK-MEL-5 melanoma = test system: SK-MEL-5 melanoma
UACC-62 melanoma = test system: UACC-62 melanoma

| Compound | TGI (HOP-92 NSCLC) | TGI (OVCAR-5 ovarian) | TGI (CCRF-CEM leukemia) | TGI (SF-268 CNS) | TGI (HS 578T breast) | TGI (HT29 colon) | TGI (HOP-62 NSCLC) | TGI (UACC-257 melanoma) | TGI (SK-MEL-5 melanoma) | TGI (UACC-62 melanoma) | GI50 (HOP-92 NSCLC) | GI50 (OVCAR-5 ovarian) | GI50 (CCRF-CEM leukemia) | GI50 (SF-268 CNS) | GI50 (HS 578T breast) | GI50 (HT29 colon) | GI50 (HOP-62 NSCLC) | GI50 (UACC-257 melanoma) | GI50 (SK-MEL-5 melanoma) | GI50 (UACC-62 melanoma) |
| --- | --- | --- | --- | --- | --- | --- | --- | --- | --- | --- | --- | --- | --- | --- | --- | --- | --- | --- | --- | --- |
| COC(=O)[C@@]12C(=O)C=CC(=O)[C@@H]1C1C(=CC2COC(C)=O)O[C@@H]2OC3(CCCCC3)O[C@H]12 (some centres undefined) | 21.2 µM | 30.7 µM | 17 µM | 23.7 µM | 31.6 µM | 19.3 µM | 35 µM | 30.3 µM | 32.5 µM | 25.9 µM |  |  |  |  |  |  |  |  |  |  |
| COc1cccc2c1C(=O)C=CC2=O | 3.75 µM | 33 µM | 1.65 µM | 19.8 µM | > 100 µM | 26.9 µM | 34.4 µM | 29 µM | 30.3 µM | 25.3 µM |  |  |  |  |  |  |  |  |  |  |
| CC(=O)NCCc1c2c(c3nccc4c3c1Nc1ccccc1-4)OCS2 | 21 µM | 21.3 µM |  | 11.4 µM | 37 µM | 4.77 µM | 34.1 µM | 27 µM | 14.5 µM | 19.3 µM | 2.02 µM | 5.21 µM | 1.28 µM | 1.56 µM | 8.19 µM | 0.968 µM | 3.6 µM | 13.8 µM | 2.99 µM | 5.5 µM |
| CCOC(=O)c1ccc2[nH]c(-c3ccc(S(=O)(=O)F)cc3)cc(=O)c2c1 | > 100 µM | > 100 µM | > 100 µM | > 100 µM | > 100 µM | > 100 µM | > 100 µM | > 100 µM | > 100 µM | 76.2 µM |  |  |  |  |  |  |  |  |  |  |
| CC12CCC3C(CCC4Cc5[nH]c6ccccc6c5CC43C)C1CCC2O (centres undefined) | > 100 µM | > 100 µM | 6.44 µM | > 100 µM | 1.88 µM | > 27.1 µM | 2.57 µM | > 100 µM | > 100 µM | 2.35 µM | > 100 µM | > 100 µM | 1 µM | 2.55 µM | 0.362 µM | 1.58 µM | 0.348 µM | > 100 µM | 0.75 µM | 0.284 µM |
| Nc1c(C(=O)c2cccc(CCCN3CCOCC3)c2)cnn1-c1ccc(F)cc1 | > 25 µM | > 25 µM | > 25 µM | > 25 µM | > 25 µM | > 25 µM | > 25 µM | > 25 µM | > 25 µM | > 25 µM | 7.01 µM | > 25 µM | > 25 µM | > 25 µM | > 25 µM | > 25 µM | > 25 µM | > 25 µM | 24.7 µM | > 25 µM |
| COc1cc(C(=O)/C=C/c2c(C)n([O-])c3ccc(C)cc3[n+]2=O)cc(OC)c1OC | > 27.1 µM | 29.6 µM | > 100 µM | 29.5 µM | 60.7 µM | 16.5 µM | 47.8 µM | 10.2 µM | 28 µM | 32.4 µM | 5.56 µM | 12.8 µM | 2.83 µM | 12.3 µM | 14.7 µM | 4.84 µM | 21.3 µM | 2.54 µM | 14.8 µM | 8.46 µM |
| NC(=O)NNCc1ccccc1 | > 100 µM | > 100 µM | > 100 µM | > 100 µM | > 100 µM | > 100 µM | > 100 µM | > 100 µM | > 100 µM | > 100 µM |  |  |  |  |  |  |  |  |  |  |
| Cc1cc2nc(C(C)C(=O)c3ccc(Cl)cc3)c(=O)[nH]c2cc1C (centres undefined) | > 100 µM | > 100 µM | > 100 µM | > 100 µM | > 100 µM | 66.4 µM | > 100 µM | > 100 µM | > 100 µM | > 100 µM |  |  |  |  |  |  |  |  |  |  |
| O=[N+]([O-])c1ccc(S(=O)(=O)Cc2ccccc2)c([N+](=O)[O-])c1 | 3.38 µM | 27.3 µM | 0.498 µM | 14.5 µM | > 91.7 µM | 5.55 µM | 9.13 µM | 3.05 µM | 4.9 µM | 5.22 µM |  |  |  |  |  |  |  |  |  |  |
| COc1cc(NS(C)(=O)=O)ccc1Nc1c2ccc([N+](=O)[O-])cc2nc2c(C)cccc12 | 1.68 µM | 14.4 µM | 3.4 µM | 13.1 µM | 22.3 µM | 7.1 µM | 6.37 µM | 14.7 µM | 1.81 µM | 11.1 µM | 0.111 µM | 2.87 µM | 0.158 µM | 0.256 µM | 1.96 µM | 1.41 µM | 0.107 µM | 1.29 µM | 0.194 µM | 0.377 µM |
| Cc1ccc([N+](=O)[O-])cc1NC(=O)Nc1cccc(F)c1 | 15.2 µM | > 100 µM | > 100 µM | > 100 µM | 45.3 µM | > 100 µM | 43 µM | > 100 µM | > 100 µM | > 100 µM | 3.46 µM | 9.82 µM | 3.96 µM | 6.9 µM | 7.92 µM | 4.35 µM | 9.77 µM | 4.23 µM | 4.04 µM | 4.55 µM |
| COc1ccc(-c2cc(-c3cc(Cl)ccc3Cl)nc3n[nH]c(N)c23)cc1 | > 100 µM | > 100 µM | 90.7 µM | 24.5 µM | 87 µM | > 100 µM | 84.6 µM | > 100 µM | 34.5 µM | > 100 µM | 22.3 µM | 58.2 µM | 31 µM | 4.32 µM | 25.3 µM | 6.32 µM | 14.7 µM | 70.4 µM | 14.4 µM | 41.9 µM |
| NCCNc1c2c(c(NCCN)c3c(CO)c[nH]c13)C(=O)c1ccccc1C2=O | > 100 µM | > 100 µM | > 100 µM | 6.42 µM | 38.9 µM | > 100 µM | > 100 µM | 46 µM | 69.3 µM | > 100 µM | 24 µM | 48.7 µM | 4.28 µM | 0.795 µM | 3.27 µM | 10.6 µM | 4.22 µM | 16.8 µM | 19.9 µM | 15.2 µM |
| COc1ccc(C2CC(c3cc(OC)c(OC)c(OC)c3)=NO2)cc1OCCCCOc1cc2c(cc1OC)C(=O)N1CCC[C@H]1C=N2 (some centres undefined) | 10.3 µM | 8.34 µM | 4.27 µM | 4.16 µM | 3.82 µM | 8.38 µM | 3.43 µM | 4.96 µM | 2.79 µM | 2.85 µM | 2.47 µM | 3.13 µM | 1.41 µM | 1.89 µM | 1.1 µM | 2.75 µM | 1.68 µM | 2.33 µM | 1.47 µM | 1.52 µM |
| CCN1CCN(Cc2ccc(-c3cc4c(N[C@H](C)c5ccccc5)ncnc4[nH]3)cc2)CC1 | 4.21 µM and > 10 µM | 23.9 µM and > 10 µM | 6.43 µM and > 10 µM | 18.7 µM and > 10 µM | 9.79 µM and 5.24 µM | 8.77 µM and > 10 µM | 18.3 µM and > 10 µM | 3.38 µM and 3.41 µM | 3.68 µM and 3.88 µM | 5.36 µM and > 10 µM | 0.167 µM and 0.523 µM | 0.708 µM and 1.61 µM | 2.41 µM and 3.23 µM | 2.43 µM and 4.11 µM | 2.1 µM and 0.763 µM | 1.99 µM and 2.41 µM | 3.52 µM and 3.53 µM | 1.76 µM and 1.83 µM | 1.76 µM and 1.72 µM | 2.09 µM and 3.75 µM |
| O=C(NC1CCN(Cc2ccccc2)CC1)c1cc(-c2ccncc2)nc2ccc(Cl)cc12 | 47.4 µM | > 100 µM | > 100 µM | > 100 µM | 64 µM | 19.7 µM | > 100 µM | 36.3 µM | 21.7 µM | > 85.3 µM | 2.49 µM | 13.9 µM | 21.2 µM | 22.6 µM | 14.4 µM | 4.7 µM | 14.5 µM | 16.9 µM | 9.07 µM | 20.6 µM |
| C=CC[n+]1c(/C=C/C=C2\N(C)c3ccccc3C2(C)C)sc2ccc(OC)cc21 | 1.61 µM | 14.9 µM | 12.7 µM | 19.6 µM | 25.4 µM | 6.05 µM | 11.9 µM | 0.733 µM | 0.239 µM | 2.65 µM | 0.201 µM | 0.504 µM | 0.287 µM | 0.321 µM | 0.465 µM | 0.272 µM | 0.291 µM | 0.197 µM | 0.0615 µM | 0.195 µM |
| N#Cc1c(-c2ccccc2)nc(SCC2CO2)nc1N1CCOCC1 (centres undefined) | 1.22 µM | > 83.3 µM | > 100 µM | > 100 µM | 11.8 µM | > 100 µM | > 86.8 µM | > 100 µM | > 100 µM | > 86.9 µM | 0.284 µM | 5.05 µM | > 31 µM | 13.1 µM | 1.93 µM | 29.7 µM | 6.8 µM | 34.3 µM | 10.2 µM | 3.52 µM |
| COc1ccc2[nH]c(=O)c3c4ccccc4cn3c2c1 | 8.37 µM | 2.69 µM | 1.48 µM | 3.19 µM | 0.775 µM | 1.44 µM | 0.885 µM | 11.1 µM | 1.44 µM | 1.4 µM | 2 µM | 0.659 µM | 0.322 µM | 0.516 µM | 0.25 µM | 0.375 µM | 0.228 µM | 2.67 µM | 0.377 µM | 0.345 µM |
| Cc1c2cc[n+](C)cc2c(C)c2c1sc1ccccc12 | 9.75 µM | 15.6 µM | 13.8 µM | 1.14 µM | 0.692 µM | 25.4 µM | 1.76 µM | 7.01 µM | 4.56 µM | 4.25 µM |  |  |  |  |  |  |  |  |  |  |
